Legend:
Experiment in all cases: NCI-60 antiproliferative screen (SRB)
HCC-2998 = type: cell-based, human; settings: Homo sapiens; 10 µM single dose, 48 h; HCC-2998 (Colon); read-out: Growth inhibition (%)
COLO 205 = type: cell-based, human; settings: Homo sapiens; 10 µM single dose, 48 h; COLO 205 (Colon); read-out: Growth inhibition (%)
SK-OV-3 = type: cell-based, human; settings: Homo sapiens; 10 µM single dose, 48 h; SK-OV-3 (Ovarian); read-out: Growth inhibition (%)
RPMI-8226 = type: cell-based, human; settings: Homo sapiens; 10 µM single dose, 48 h; RPMI-8226 (Leukemia); read-out: Growth inhibition (%)
HOP-92 = type: cell-based, human; settings: Homo sapiens; 10 µM single dose, 48 h; HOP-92 (NSCLC); read-out: Growth inhibition (%)
A549/ATCC = type: cell-based, human; settings: Homo sapiens; 10 µM single dose, 48 h; A549/ATCC (NSCLC); read-out: Growth inhibition (%)
OVCAR-8 = type: cell-based, human; settings: Homo sapiens; 10 µM single dose, 48 h; OVCAR-8 (Ovarian); read-out: Growth inhibition (%)
TK-10 = type: cell-based, human; settings: Homo sapiens; 10 µM single dose, 48 h; TK-10 (Renal); read-out: Growth inhibition (%)
NCI-H23 = type: cell-based, human; settings: Homo sapiens; 10 µM single dose, 48 h; NCI-H23 (NSCLC); read-out: Growth inhibition (%)
SNB-75 = settings: Homo sapiens, SNB-75, 48 h, read-out: Growth inhibition (%)
SK-MEL-28 = type: cell-based, human; settings: Homo sapiens; 10 µM single dose, 48 h; SK-MEL-28 (Melanoma); read-out: Growth inhibition (%)
CAKI-1 = type: cell-based, human; settings: Homo sapiens; 10 µM single dose, 48 h; CAKI-1 (Renal); read-out: Growth inhibition (%)
MDA-MB-231 = type: cell-based, human; settings: Homo sapiens; 10 µM single dose, 48 h; MDA-MB-231 (Breast); read-out: Growth inhibition (%)
SN12C = type: cell-based, human; settings: Homo sapiens; 10 µM single dose, 48 h; SN12C (Renal); read-out: Growth inhibition (%)
KM12 = type: cell-based, human; settings: Homo sapiens; 10 µM single dose, 48 h; KM12 (Colon); read-out: Growth inhibition (%)
ACHN = type: cell-based, human; settings: Homo sapiens; 10 µM single dose, 48 h; ACHN (Renal); read-out: Growth inhibition (%)
SK-MEL-5 = type: cell-based, human; settings: Homo sapiens; 10 µM single dose, 48 h; SK-MEL-5 (Melanoma); read-out: Growth inhibition (%)
OVCAR-5 = type: cell-based, human; settings: Homo sapiens; 10 µM single dose, 48 h; OVCAR-5 (Ovarian); read-out: Growth inhibition (%)
MCF7 = type: cell-based, human; settings: Homo sapiens; 10 µM single dose, 48 h; MCF7 (Breast); read-out: Growth inhibition (%)
A498 = type: cell-based, human; settings: Homo sapiens; 10 µM single dose, 48 h; A498 (Renal); read-out: Growth inhibition (%)
T-47D = type: cell-based, human; settings: Homo sapiens, T47D; 10 µM single dose, 48 h; T-47D (Breast); read-out: Growth inhibition (%)
SF-268 = type: cell-based, human; settings: Homo sapiens; 10 µM single dose, 48 h; SF-268 (CNS); read-out: Growth inhibition (%)
SK-MEL-2 = type: cell-based, human; settings: Homo sapiens; 10 µM single dose, 48 h; SK-MEL-2 (Melanoma); read-out: Growth inhibition (%)
CCRF-CEM = type: cell-based, human; settings: Homo sapiens; 10 µM single dose, 48 h; CCRF-CEM (Leukemia); read-out: Growth inhibition (%)
HCT-15 = type: cell-based, human; settings: Homo sapiens; 10 µM single dose, 48 h; HCT-15 (Colon); read-out: Growth inhibition (%)
SF-539 = type: cell-based, human; settings: Homo sapiens; 10 µM single dose, 48 h; SF-539 (CNS); read-out: Growth inhibition (%)
MOLT-4 = type: cell-based; settings: Homo sapiens; 10 µM single dose, 48 h; MOLT-4 (Leukemia); read-out: Growth inhibition (%)
SW-620 = type: cell-based, human; settings: Homo sapiens; 10 µM single dose, 48 h; SW-620 (Colon); read-out: Growth inhibition (%)
HOP-62 = type: cell-based, human; settings: Homo sapiens; 10 µM single dose, 48 h; HOP-62 (NSCLC); read-out: Growth inhibition (%)

In the case of `O=C1Nc2ccccc2C1=Cc1ccc(OCc2cccnc2)cc1` (mixture of isomers) [Compound 5i, (E/Z)-3-[4-(Pyridin-3-ylmethoxy)benzylidene]indolin-2-one], the inhibition at 10 µM (HCC-2998) is reported as -2.08%, the inhibition at 10 µM (COLO 205) is reported as 26.1% and the inhibition at 10 µM (SK-OV-3) is reported as 13.2%. The inhibition at 10 µM (RPMI-8226) was 45.4%, the inhibition at 10 µM (HOP-92) was 35.4% and the inhibition at 10 µM (A549/ATCC) was 26.2%. It also gave an inhibition at 10 µM (OVCAR-8) of 47.2%, an inhibition at 10 µM (TK-10) of -15.7% and an inhibition at 10 µM (NCI-H23) of 42.4%. It also gave an inhibition at 10 µM (SNB-75) of -1.11%, an inhibition at 10 µM (SK-MEL-28) of -2.65% and an inhibition at 10 µM (CAKI-1) of 56.7%. For the same compound, the inhibition at 10 µM (MDA-MB-231) was 35.4%, the inhibition at 10 µM (SN12C) was 27.1% and the inhibition at 10 µM (KM12) was 87.4%. It also gave an inhibition at 10 µM (ACHN) of 37.5%, an inhibition at 10 µM (SK-MEL-5) of 59.4% and an inhibition at 10 µM (OVCAR-5) of -27.6%. For the same compound, the inhibition at 10 µM (MCF7) was 58%, the inhibition at 10 µM (A498) was -17.8% and the inhibition at 10 µM (T-47D) was 51%. It also gave an inhibition at 10 µM (SF-268) of -19.6%, an inhibition at 10 µM (SK-MEL-2) of 24.1% and an inhibition at 10 µM (CCRF-CEM) of 52.4%. It also gave an inhibition at 10 µM (HCT-15) of 60.5%, an inhibition at 10 µM (SF-539) of 36.2% and an inhibition at 10 µM (MOLT-4) of 70%. For the same compound, the inhibition at 10 µM (SW-620) was 19.9% and the inhibition at 10 µM (HOP-62) was 37.2%.
